Measured values as given in ChEMBL document CHEMBL1201862, “PubChem BioAssay data set” (2004).
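Five compound concentrations were applied to cells in 96-well plates for 48 hours; endpoints were derived by simple linear interpolation of the resulting dose-response curve. GI50 is the concentration that inhibits growth by half.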 Active and inactive are the calls of the source. No stated cut-off is given here; in the data, active = GI50 up to about 1.1 µM and inactive = higher.

Legend:
Assay in all cases: DTP human tumour cell line panel, 48 h
EKVX = system: EKVX
HCT-116 = system: HCT-116
HOP-92 = system: HOP-92
KM-20L2 = system: KM-20L2
LXFL 529 = system: LXFL 529
M14 = system: M14
MOLT-4 = system: MOLT-4
NCI-H23 = system: NCI-H23
OVCAR-8 = system: OVCAR-8
SF-539 = system: SF-539
SK-OV-3 = system: SK-OV-3
SR = system: SR
TK-10 = system: TK-10
UACC-257 = system: UACC-257
UO-31 = system: UO-31
XF498 = system: XF498
RXF 393 = system: RXF 393
SW-620 = system: SW-620
Hs-578T = system: Hs-578T
T47D = system: T47D

Measured: GI50

COc1ccccc1OCc1nnc(SCC(=O)O)n1-c1ccccc1
inactive: EKVX > 100 µM | HCT-116 > 100 µM | HOP-92 > 100 µM | KM-20L2 > 100 µM | LXFL 529 > 100 µM | M14 > 100 µM | MOLT-4 > 100 µM | NCI-H23 > 100 µM | OVCAR-8 > 100 µM | SF-539 > 100 µM | SK-OV-3 > 100 µM | SR > 100 µM | TK-10 > 100 µM | UACC-257 > 100 µM | UO-31 > 100 µM | XF498 > 100 µM

O=C(N/N=C(/CCN1CCCC1)CC(c1ccccc1)c1c(O)c2ccccc2oc1=O)c1ccncc1 (stereo not drawn)
inactive: EKVX > 100 µM | HCT-116 > 100 µM | HOP-92 35 µM | KM-20L2 > 100 µM | LXFL 529 > 100 µM | M14 94.6 µM | NCI-H23 > 100 µM | OVCAR-8 > 100 µM | RXF 393 > 100 µM | SF-539 > 100 µM | SK-OV-3 > 100 µM | SR 15.4 µM | SW-620 41.2 µM | TK-10 > 100 µM | UACC-257 > 100 µM | UO-31 > 100 µM

CC(C)c1cccc(C(C)C)c1NC1=CC(=O)C(=O)c2ccccc21
inactive: EKVX > 100 µM | HCT-116 > 100 µM | HOP-92 > 100 µM | KM-20L2 > 100 µM | LXFL 529 > 100 µM | M14 > 100 µM | MOLT-4 58.5 µM | NCI-H23 72.9 µM | OVCAR-8 > 100 µM | RXF 393 > 100 µM | SF-539 > 100 µM | SK-OV-3 > 100 µM | SR 35.5 µM | SW-620 > 100 µM | TK-10 > 100 µM | UACC-257 67 µM | UO-31 > 100 µM

Cn1cc2ccccc2c1-c1nc(F)nc(Oc2ccc3c(c2)CC[C@@H]2C3CC[C@@]3(C)C2C[C@H](O)[C@@H]3O)n1 (stereo partly drawn)
inactive: EKVX 17.7 µM | HCT-116 14.3 µM | HOP-92 22.3 µM | KM-20L2 15.8 µM | LXFL 529 13.8 µM | M14 15.9 µM | MOLT-4 5.43 µM | NCI-H23 18.3 µM | OVCAR-8 15.8 µM | RXF 393 19.4 µM | SF-539 13.5 µM | SK-OV-3 21.9 µM | SW-620 4.14 µM | TK-10 20.4 µM | UACC-257 23.5 µM | UO-31 16.4 µM | XF498 22.4 µM

CN/N=C(/CC(=O)c1sc(NNC(C)=O)nc1C)C(=O)Nc1ccc(OC)cc1OC
inactive: EKVX 59.7 µM | HCT-116 > 100 µM | HOP-92 > 100 µM | KM-20L2 > 100 µM | LXFL 529 > 100 µM | M14 > 100 µM | MOLT-4 > 100 µM | NCI-H23 > 100 µM | OVCAR-8 > 100 µM | SF-539 > 100 µM | SR > 100 µM | SW-620 > 100 µM | TK-10 > 100 µM | UACC-257 > 100 µM | UO-31 > 100 µM | XF498 > 100 µM

Cc1ccc(NC(=O)CCC(=O)C2CC(=O)CCC2=O)cc1C (stereo not drawn)
inactive: EKVX > 100 µM | HCT-116 > 100 µM | HOP-92 76.4 µM | KM-20L2 > 100 µM | LXFL 529 > 100 µM | M14 > 100 µM | MOLT-4 > 100 µM | NCI-H23 > 100 µM | OVCAR-8 > 100 µM | RXF 393 > 100 µM | SF-539 > 100 µM | SK-OV-3 > 100 µM | SW-620 > 100 µM | TK-10 > 100 µM | UACC-257 > 100 µM | UO-31 > 100 µM

COc1cc([C@@H]2OC(=O)C3C2C(=O)O[C@H]3c2ccc(O)c(OC)c2)ccc1O (stereo partly drawn)
inactive: HCT-116 > 100 µM | HOP-92 > 100 µM | KM-20L2 > 100 µM | LXFL 529 > 100 µM | M14 > 100 µM | MOLT-4 > 100 µM | NCI-H23 > 100 µM | OVCAR-8 > 100 µM | RXF 393 > 100 µM | SF-539 > 100 µM | SK-OV-3 > 100 µM | SR > 100 µM | SW-620 > 100 µM | TK-10 > 100 µM | UACC-257 > 100 µM | UO-31 > 100 µM

COC(=O)/C=C(C)/C=C/c1cc(C(C)=O)c(C)o1
inactive: EKVX 51.9 µM | HCT-116 > 100 µM | HOP-92 23.2 µM | KM-20L2 > 100 µM | LXFL 529 93.1 µM | M14 > 100 µM | MOLT-4 62.5 µM | NCI-H23 > 100 µM | OVCAR-8 > 100 µM | SF-539 > 100 µM | SK-OV-3 > 100 µM | SR > 100 µM | SW-620 > 100 µM | UACC-257 > 100 µM | UO-31 86.9 µM | XF498 > 100 µM

COC(=O)[C@H]1C2CC[C@@H]3C45C[C@@H](c6ccoc6)O[C@@H]4O[C@@H](O2)C31CCC5C (stereo partly drawn)
inactive: EKVX 92.3 µM | HCT-116 > 100 µM | HOP-92 44.6 µM | KM-20L2 > 100 µM | LXFL 529 57.7 µM | M14 > 100 µM | MOLT-4 69.7 µM | NCI-H23 > 100 µM | OVCAR-8 > 100 µM | SF-539 > 100 µM | SK-OV-3 > 100 µM | SW-620 > 100 µM | TK-10 > 100 µM | UACC-257 > 100 µM | UO-31 68.5 µM | XF498 > 100 µM

O=C(Nc1ccc(C(F)(F)F)cc1[N+](=O)[O-])C(=O)C1NC(=S)NC1=O (stereo not drawn)
inactive: EKVX 4.86 µM | HCT-116 > 100 µM | HOP-92 43.7 µM | KM-20L2 > 100 µM | LXFL 529 > 100 µM | M14 > 100 µM | MOLT-4 > 100 µM | NCI-H23 > 100 µM | OVCAR-8 > 100 µM | RXF 393 > 100 µM | SF-539 > 100 µM | SK-OV-3 > 100 µM | SR > 100 µM | SW-620 > 100 µM | TK-10 > 100 µM | UACC-257 > 100 µM | UO-31 > 100 µM

O=C1c2ccc3c4ccccc4n(Cc4ccccc4)c3c2C(=O)N1c1ccccc1
inactive: EKVX 17.5 µM | HCT-116 16.4 µM | HOP-92 11.4 µM | KM-20L2 20.9 µM | LXFL 529 14.3 µM | M14 14.8 µM | MOLT-4 3.05 µM | NCI-H23 12.9 µM | OVCAR-8 15.6 µM | RXF 393 12.7 µM | SF-539 17.1 µM | SK-OV-3 24.9 µM | SR 5.61 µM | SW-620 5.98 µM | TK-10 15.6 µM | UACC-257 15.8 µM | UO-31 16.5 µM

COc1cccc(C2=NC(C(C)C)CO2)c1OC (stereo not drawn)
inactive: EKVX > 100 µM | HOP-92 > 100 µM | KM-20L2 > 100 µM | LXFL 529 > 100 µM | M14 > 100 µM | MOLT-4 > 100 µM | NCI-H23 > 100 µM | OVCAR-8 > 100 µM | RXF 393 > 100 µM | SF-539 > 100 µM | SK-OV-3 > 100 µM | SW-620 > 100 µM | TK-10 > 100 µM | UACC-257 > 100 µM | UO-31 > 100 µM | XF498 > 100 µM

CN(/N=C/c1ccnc2ccccc12)c1c([N+](=O)[O-])cc([N+](=O)[O-])cc1[N+](=O)[O-]
inactive: EKVX 47.3 µM | HOP-92 28.1 µM | KM-20L2 > 100 µM | LXFL 529 48.4 µM | M14 43.3 µM | MOLT-4 28.1 µM | NCI-H23 35.1 µM | OVCAR-8 98.2 µM | RXF 393 39.2 µM | SF-539 > 100 µM | SK-OV-3 > 100 µM | SW-620 38.5 µM | TK-10 > 100 µM | UACC-257 > 100 µM | UO-31 26.7 µM | XF498 70.1 µM

C[C@]12CCc3nonc3C1CC[C@@H]1C2CC[C@@]2(C)C1CC[C@@H]2O (stereo partly drawn)
inactive: EKVX > 100 µM | HOP-92 94.4 µM | KM-20L2 > 100 µM | LXFL 529 > 100 µM | M14 > 100 µM | MOLT-4 > 100 µM | NCI-H23 > 100 µM | OVCAR-8 > 100 µM | RXF 393 > 100 µM | SF-539 > 100 µM | SK-OV-3 > 100 µM | SW-620 > 100 µM | TK-10 > 100 µM | UACC-257 > 100 µM | UO-31 > 100 µM | XF498 > 100 µM

O=C(O)/C(=C/C=C/c1ccccc1)c1csc(-c2nc(/C(=C\C=C\c3ccccc3)C(=O)O)cs2)n1
inactive: EKVX > 100 µM | HCT-116 17.7 µM | HOP-92 19.6 µM | KM-20L2 35.8 µM | LXFL 529 24.7 µM | M14 22.9 µM | MOLT-4 1.69 µM | NCI-H23 > 10 µM | OVCAR-8 44.8 µM | RXF 393 25.2 µM | SF-539 21.2 µM | SK-OV-3 57.3 µM | SW-620 39.4 µM | TK-10 > 100 µM | UACC-257 34.9 µM | UO-31 18.5 µM

CCCCCCCCCCCCCCCCOP(=O)([O-])OCC[N+](C)(C)C [MILTEFOSINE]
inactive: EKVX 27 µM | HCT-116 18.2 µM | HOP-92 2.68 µM | Hs-578T 19.3 µM | KM-20L2 > 10 µM | M14 16.4 µM | MOLT-4 8.73 µM | NCI-H23 33.3 µM | OVCAR-8 25.8 µM | RXF 393 5.9 µM | SF-539 30.5 µM | SK-OV-3 8.91 µM | SR 6.21 µM | SW-620 20.8 µM | T47D 18.2 µM | TK-10 2.1 µM | UACC-257 30.6 µM | UO-31 20.6 µM | XF498 17.9 µM
